Data from paper PMC5778891 (Nature, 2017).
Numbering of substitutions follows the chain as printed.

Experiments:
[1] = biological target: T1, K2P2.1(TREK-1) K271Q (Mus musculus, UniProt P97438, K286Q); experiment: HEK cell patch clamp response to arachidonic acid, K2P2.1; format: cell-based; conditions: HEK cells, 10 μM AA
T1 sequence (P97438 1-411 isoform P97438-2 K271Q): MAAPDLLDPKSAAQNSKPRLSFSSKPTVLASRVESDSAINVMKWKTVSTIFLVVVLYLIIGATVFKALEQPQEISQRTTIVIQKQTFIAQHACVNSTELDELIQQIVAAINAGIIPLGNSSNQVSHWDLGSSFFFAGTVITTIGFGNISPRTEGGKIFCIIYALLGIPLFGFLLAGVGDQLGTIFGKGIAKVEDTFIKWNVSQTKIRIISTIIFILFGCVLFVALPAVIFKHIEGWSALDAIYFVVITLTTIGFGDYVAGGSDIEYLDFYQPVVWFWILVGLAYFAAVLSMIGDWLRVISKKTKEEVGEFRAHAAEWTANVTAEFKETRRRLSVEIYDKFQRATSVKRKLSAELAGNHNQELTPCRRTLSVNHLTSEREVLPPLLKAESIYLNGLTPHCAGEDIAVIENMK

[2] = biological target: T2, K2P2.1(TREK-1) (Mus musculus, UniProt P97438); experiment: Two electrode voltage clamp in Xenopus oocytes, K2P2.1; format: cell-based
T2 sequence (P97438 1-411 isoform P97438-2): T1 sequence (P97438 1-411 isoform P97438-2 K271Q) with Q271K

[3] = biological target: T3, K2P4.1(TRAAK) Q258K (Homo sapiens, UniProt Q9NYG8, Q232K); experiment: Two electrode voltage clamp in Xenopus oocytes, K2P4.1; format: cell-based; conditions: for effect of activator (current potentiation at 0 mV) compared with wild type: Xenopus oocytes, K2P4.1(TRAAK) Q258K, 10 μM BL-1249, 30 μM ML67-33
T3 sequence (Q9NYG8 1-419 isoform Q9NYG8-2 Q258K): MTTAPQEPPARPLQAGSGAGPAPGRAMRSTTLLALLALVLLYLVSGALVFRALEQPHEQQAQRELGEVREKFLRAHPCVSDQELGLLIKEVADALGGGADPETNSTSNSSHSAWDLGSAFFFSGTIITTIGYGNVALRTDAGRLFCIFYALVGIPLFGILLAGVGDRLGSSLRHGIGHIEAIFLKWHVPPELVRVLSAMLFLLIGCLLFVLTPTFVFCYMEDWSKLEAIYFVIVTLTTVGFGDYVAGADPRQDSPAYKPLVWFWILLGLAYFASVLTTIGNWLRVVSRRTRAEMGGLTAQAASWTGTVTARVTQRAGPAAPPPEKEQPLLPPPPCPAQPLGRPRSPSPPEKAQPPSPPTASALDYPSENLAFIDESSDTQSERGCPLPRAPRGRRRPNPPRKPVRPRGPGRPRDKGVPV

[4] = biological target: T1, K2P2.1(TREK-1) K271Q; experiment: Two electrode voltage clamp in Xenopus oocytes, K2P2.1; format: cell-based; conditions: for effect of activator (current potentiation at 0 mV) compared with wild type: 10 μM BL-1249, 30 μM ML67-33
[5] = biological target: T2, K2P2.1(TREK-1); experiment: HEK293 inside-out patches, 150 mM K+[out]/150 mM Rb+[in], rectification; format: cell-based; conditions: 5 μM compound
[6] = Solubility in aqueous solutions; format: physicochemical
[7] = biological target: T4, K2P4.1(TRAAK) (Homo sapiens, UniProt Q9NYG8); experiment: Two electrode voltage clamp in Xenopus oocytes, K2P4.1; format: cell-based
T4 sequence (Q9NYG8 1-419 isoform Q9NYG8-2): T3 sequence (Q9NYG8 1-419 isoform Q9NYG8-2 Q258K) with K258Q

[8] = biological target: T5, K2P10.1(TREK-2) (Homo sapiens, UniProt P57789); experiment: Two electrode voltage clamp in Xenopus oocytes, K2P10.1; format: cell-based
T5 sequence (P57789 1-543 isoform P57789-3): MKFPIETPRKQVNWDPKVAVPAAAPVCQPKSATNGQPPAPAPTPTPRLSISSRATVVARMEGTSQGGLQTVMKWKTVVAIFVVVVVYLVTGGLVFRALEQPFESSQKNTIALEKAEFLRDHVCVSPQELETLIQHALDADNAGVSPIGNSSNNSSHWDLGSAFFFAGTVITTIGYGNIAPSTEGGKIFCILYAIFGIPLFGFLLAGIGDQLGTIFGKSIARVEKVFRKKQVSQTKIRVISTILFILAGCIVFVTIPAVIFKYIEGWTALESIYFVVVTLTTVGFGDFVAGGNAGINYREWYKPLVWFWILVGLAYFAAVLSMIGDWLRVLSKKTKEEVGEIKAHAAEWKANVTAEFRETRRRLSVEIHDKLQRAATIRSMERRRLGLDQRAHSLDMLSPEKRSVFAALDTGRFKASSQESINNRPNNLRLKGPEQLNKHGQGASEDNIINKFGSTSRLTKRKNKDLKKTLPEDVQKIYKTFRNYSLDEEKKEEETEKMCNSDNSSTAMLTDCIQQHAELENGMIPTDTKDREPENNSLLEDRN

[9] = biological target: K2P2.1(TREK-1)cryst (Mus musculus, UniProt P97438, A104R/A107P/E321A/I103L/K99R/N110S/N134A/Q100E/Q105A/S111D/S315A/T101K/T112Q); experiment: cell-based
K2P2.1(TREK-1)cryst, sequence (P97438 36-337 K99R/Q100E/T101K/I103L/A104R/Q105A/A107P/N110S/S111D/T112Q/N134A/S315A/E321A): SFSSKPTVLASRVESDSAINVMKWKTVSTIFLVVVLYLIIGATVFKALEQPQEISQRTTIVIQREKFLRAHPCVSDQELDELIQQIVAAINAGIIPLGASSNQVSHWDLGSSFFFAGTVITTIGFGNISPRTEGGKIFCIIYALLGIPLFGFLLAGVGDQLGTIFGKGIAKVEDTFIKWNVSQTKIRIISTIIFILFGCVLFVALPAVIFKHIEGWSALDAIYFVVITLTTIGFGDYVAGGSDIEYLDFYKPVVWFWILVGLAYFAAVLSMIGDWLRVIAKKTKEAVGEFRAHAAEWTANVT

[10] = biological target: T2, K2P2.1(TREK-1); experiment: cell-based

| effect of activator (current potentiation at 0 mV) compared with wild type [3] | effect of activator (current potentiation at 0 mV) compared with wild type [4] | Structure (SMILES) | EC50 [3] [µM] | EC50 [2] [µM] | rectification coefficient (I+100mV/I-100mV) [5] | solubility in aqueous solutions [6] | sensitivity to activator [4] | activation of channel [7] | EC50 [8] [µM] | EC50 [9] [µM] | EC50 [10] [µM] | further results |
| --- | --- | --- | --- | --- | --- | --- | --- | --- | --- | --- | --- | --- |
| – | – | CCCCC/C=C\C/C=C\C/C=C\C/C=C\CCCC(=O)O [arachidonic acid] | – | – | – | – | – | – | – | – | – | effect of activator (current potentiation at 0 mV) compared with wild type [1]: unchanged |
| – | – | C=CS(=O)(=O)N[C@H]1CC[C@H](C(=O)NCc2ccc(Cl)cc2Cl)CC1 [ML335a, trans-N-[(2,4-dichlorophenyl)methyl]-4-ethenesulfonamidocyclohexane-1-carboxamide] | – | – | – | – | – | – | – | – | – | effect on channel ([2]; Xenopus oocytes, dose response, K2P2.1(TREK-1)): no effect |
| unchanged | unchanged | CC1(C)c2cc(Cl)ccc2N(CCc2nn[nH]n2)c2ccc(Cl)cc21 [ML67-33, reference compound] | – | – | – | – | – | – | – | – | – | – |
| – | – | CS(=O)(=O)Nc1ccc(C(=O)NCc2ccc(Cl)cc2Cl)cc1 [ML335, N-[(2,4-dichlorophenyl)methyl]-4-methanesulfonamidobenzamide] | 16.2 ± 3 | 14.3 ± 2.7 | ~ 1 | insoluble | insensitive | not | 5.2 ± 0.5 | 10.5 ± 2.7 | 5.2 ± 0.8 | – |
| unchanged | unchanged | c1ccc(-c2nnn[nH]2)c(Nc2cccc3c2CCCC3)c1 [BL-1249, (5,6,7,8-tetrahydro-naphthalen-1-yl)-[2-(1H-tetrazol-5-yl)-phenyl]-amine, reference compound] | – | – | – | – | – | – | – | – | – | – |
| – | – | Cc1cc(Cl)ccc1OCCNC(=O)c1cccs1 [ML402, N-[2-(4-chloro-2-methylphenoxy)ethyl]thiophene-2-carboxamide] | 13.6 ± 1.5 | 13.7 ± 7 | ~ 1 | insoluble | insensitive | not | 5.9 ± 1.6 | 14.9 ± 1.6 | 5.9 ± 1.6 | – |
